The values that follow are results of earlier work, collected in patent publication US20250250539A1, “METHOD FOR EVALUATING ACTIVITY OF INHIBITING OR PROMOTING AGGREGATION OF AGGREGATING PROTEINS” (KANEKA CORPORATION, priority 2022, published 2025).

SMILES strings stand for the structures.

In this data set the test system is amyloid β protein. As to conditions: known cell-free evaluation system.

In the case of `O=C(/C=C/c1ccc(O)c(O)c1)O[C@H](Cc1ccc(O)c(O)c1)C(=O)O` [rosmarinic acid], the “activity of inhibiting aggregation” value is given as “exhibiting activity of inhibiting aggregation”.
